Test results published in PubChem BioAssay (NCI).
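Tested at 5 concentrations; 48 h exposure; 96-well plates; endpoints linearly interpolated, else capped at highest concentration. TGI: concentration producing complete growth inhibition.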

How the values were obtained:
Assay in all cases: NCI-60 cell line screen, 48 h
HCT-116 colon = tested on: HCT-116 colon
PC-3 prostate = tested on: PC-3 prostate
NCI-H226 lung = tested on: NCI-H226 lung
KM12 colon = tested on: KM12 colon
NCI-H23 lung = tested on: NCI-H23 lung
SK-OV-3 ovarian = tested on: SK-OV-3 ovarian
RPMI-8226 leukemia = tested on: RPMI-8226 leukemia
OVCAR-8 ovarian = tested on: OVCAR-8 ovarian
TK-10 renal = tested on: TK-10 renal
SK-MEL-28 melanoma = tested on: SK-MEL-28 melanoma
M14 melanoma = tested on: M14 melanoma
HS 578T breast = tested on: HS 578T breast
SF-295 CNS = tested on: SF-295 CNS
SF-539 CNS = tested on: SF-539 CNS
LOX IMVI melanoma = tested on: LOX IMVI melanoma
SNB-19 CNS = tested on: SNB-19 CNS
NCI-H522 lung = tested on: NCI-H522 lung
SNB-75 CNS = tested on: SNB-75 CNS
MDA-N = tested on: MDA-N
NCI-H460 lung = tested on: NCI-H460 lung
HCT-15 colon = tested on: HCT-15 colon
CCRF-CEM leukemia = tested on: CCRF-CEM leukemia
EKVX NSCLC = tested on: EKVX NSCLC
RXF 393 renal = tested on: RXF 393 renal
SF-268 CNS = tested on: SF-268 CNS
COLO 205 colon = tested on: COLO 205 colon
DU-145 prostate = tested on: DU-145 prostate
SN12C renal = tested on: SN12C renal
786-0 renal = tested on: 786-0 renal
MDA-MB-435 = tested on: MDA-MB-435
SK-MEL-5 melanoma = tested on: SK-MEL-5 melanoma
CAKI-1 renal = tested on: CAKI-1 renal
OVCAR-3 ovarian = tested on: OVCAR-3 ovarian
HOP-62 NSCLC = tested on: HOP-62 NSCLC
HT29 colon = tested on: HT29 colon
UO-31 renal = tested on: UO-31 renal
BT-549 breast = tested on: BT-549 breast
U251 CNS = tested on: U251 CNS
HL-60(TB) leukemia = tested on: HL-60(TB) leukemia
MOLT-4 leukemia = tested on: MOLT-4 leukemia
HCC-2998 colon = tested on: HCC-2998 colon
T-47D breast = tested on: T-47D breast
HOP-92 NSCLC = tested on: HOP-92 NSCLC
OVCAR-4 ovarian = tested on: OVCAR-4 ovarian
MCF7 breast = tested on: MCF7 breast
NCI/ADR-RES ovarian = tested on: NCI/ADR-RES ovarian
SW-620 colon = tested on: SW-620 colon
SK-MEL-2 melanoma = tested on: SK-MEL-2 melanoma
MALME-3M melanoma = tested on: MALME-3M melanoma
ACHN renal = tested on: ACHN renal
UACC-62 melanoma = tested on: UACC-62 melanoma
UACC-257 melanoma = tested on: UACC-257 melanoma
OVCAR-5 ovarian = tested on: OVCAR-5 ovarian
K-562 leukemia = tested on: K-562 leukemia
IGROV1 ovarian = tested on: IGROV1 ovarian
A498 renal = tested on: A498 renal
MDA-MB-231 breast = tested on: MDA-MB-231 breast
SR leukemia = tested on: SR leukemia
A549 NSCLC = tested on: A549 NSCLC

## O=C1NC(c2ccccc2)C1N(Cc1ccccc1)Cc1ccccc1 (stereo unspecified)
HCT-116 colon
  TGI: > 100 µM
PC-3 prostate
  TGI: > 100 µM
NCI-H226 lung
  TGI: > 100 µM
KM12 colon
  TGI: > 100 µM
NCI-H23 lung
  TGI: > 100 µM
SK-OV-3 ovarian
  TGI: > 100 µM
RPMI-8226 leukemia
  TGI: > 100 µM
OVCAR-8 ovarian
  TGI: > 100 µM
TK-10 renal
  TGI: > 100 µM
SK-MEL-28 melanoma
  TGI: > 100 µM
M14 melanoma
  TGI: > 100 µM
HS 578T breast
  TGI: > 100 µM
SF-295 CNS
  TGI: > 100 µM
SF-539 CNS
  TGI: > 100 µM
LOX IMVI melanoma
  TGI: > 100 µM
SNB-19 CNS
  TGI: > 100 µM
NCI-H522 lung
  TGI: > 100 µM
SNB-75 CNS
  TGI: > 100 µM
MDA-N
  TGI: > 100 µM
NCI-H460 lung
  TGI: > 100 µM
HCT-15 colon
  TGI: > 100 µM
CCRF-CEM leukemia
  TGI: > 100 µM
EKVX NSCLC
  TGI: > 100 µM
RXF 393 renal
  TGI: > 100 µM
SF-268 CNS
  TGI: > 100 µM
COLO 205 colon
  TGI: > 100 µM
DU-145 prostate
  TGI: > 100 µM
SN12C renal
  TGI: > 100 µM
786-0 renal
  TGI: > 100 µM
MDA-MB-435
  TGI: > 100 µM
SK-MEL-5 melanoma
  TGI: > 100 µM
CAKI-1 renal
  TGI: > 100 µM
OVCAR-3 ovarian
  TGI: > 100 µM
HOP-62 NSCLC
  TGI: > 100 µM
HT29 colon
  TGI: > 100 µM
UO-31 renal
  TGI: > 100 µM
BT-549 breast
  TGI: > 100 µM
U251 CNS
  TGI: > 100 µM
HL-60(TB) leukemia
  TGI: > 100 µM
MOLT-4 leukemia
  TGI: > 100 µM
HCC-2998 colon
  TGI: > 100 µM
T-47D breast
  TGI: > 100 µM
HOP-92 NSCLC
  TGI: > 100 µM
OVCAR-4 ovarian
  TGI: > 100 µM
MCF7 breast
  TGI: > 100 µM
NCI/ADR-RES ovarian
  TGI: > 100 µM
SW-620 colon
  TGI: > 100 µM
SK-MEL-2 melanoma
  TGI: > 100 µM
MALME-3M melanoma
  TGI: > 100 µM
ACHN renal
  TGI: > 100 µM
UACC-62 melanoma
  TGI: > 100 µM
UACC-257 melanoma
  TGI: > 100 µM
OVCAR-5 ovarian
  TGI: > 100 µM
K-562 leukemia
  TGI: > 100 µM
IGROV1 ovarian
  TGI: > 100 µM
A498 renal
  TGI: > 100 µM
MDA-MB-231 breast
  TGI: > 100 µM
SR leukemia
  TGI: > 100 µM

## O=C(c1no[n+]([O-])c1C(=O)c1csc2ccccc12)c1csc2ccccc12
HCT-116 colon
  TGI: 25.9 µM
PC-3 prostate
  TGI: 8.33 µM
NCI-H226 lung
  TGI: 35 µM
KM12 colon
  TGI: 18.7 µM
NCI-H23 lung
  TGI: 32 µM
SK-OV-3 ovarian
  TGI: 33 µM
RPMI-8226 leukemia
  TGI: 1.95 µM
OVCAR-8 ovarian
  TGI: 11.4 µM
TK-10 renal
  TGI: 4.9 µM
SK-MEL-28 melanoma
  TGI: 11 µM
M14 melanoma
  TGI: 22.4 µM
HS 578T breast
  TGI: > 57.3 µM
SF-295 CNS
  TGI: 29 µM
SF-539 CNS
  TGI: 8.36 µM
LOX IMVI melanoma
  TGI: 5.37 µM
SNB-19 CNS
  TGI: 32.3 µM
NCI-H522 lung
  TGI: 0.843 µM
SNB-75 CNS
  TGI: 28.5 µM
MDA-N
  TGI: 21.6 µM
NCI-H460 lung
  TGI: 28.3 µM
HCT-15 colon
  TGI: 21.7 µM
CCRF-CEM leukemia
  TGI: 0.267 µM
EKVX NSCLC
  TGI: 12.5 µM
RXF 393 renal
  TGI: 19.4 µM
SF-268 CNS
  TGI: 23.2 µM
COLO 205 colon
  TGI: 9 µM
DU-145 prostate
  TGI: 32.3 µM
SN12C renal
  TGI: 12.1 µM
786-0 renal
  TGI: 0.713 µM
MDA-MB-435
  TGI: 21.5 µM
SK-MEL-5 melanoma
  TGI: 26.1 µM
CAKI-1 renal
  TGI: 2.23 µM
OVCAR-3 ovarian
  TGI: 3.78 µM
HOP-62 NSCLC
  TGI: 25.4 µM
HT29 colon
  TGI: 13.7 µM
UO-31 renal
  TGI: 1.02 µM
BT-549 breast
  TGI: 19.3 µM
U251 CNS
  TGI: 22.7 µM
HL-60(TB) leukemia
  TGI: 0.0737 µM
MOLT-4 leukemia
  TGI: 3.17 µM
HCC-2998 colon
  TGI: 18.4 µM
T-47D breast
  TGI: 13.7 µM
HOP-92 NSCLC
  TGI: 5.01 µM
OVCAR-4 ovarian
  TGI: 7.3 µM
MCF7 breast
  TGI: 25 µM
NCI/ADR-RES ovarian
  TGI: 56.3 µM
SW-620 colon
  TGI: 5.85 µM
SK-MEL-2 melanoma
  TGI: 20.7 µM
MALME-3M melanoma
  TGI: 13.5 µM
ACHN renal
  TGI: 16 µM
UACC-62 melanoma
  TGI: 25.7 µM
UACC-257 melanoma
  TGI: 16.3 µM
OVCAR-5 ovarian
  TGI: 35.4 µM
K-562 leukemia
  TGI: 3.73 µM
IGROV1 ovarian
  TGI: 5.69 µM
A498 renal
  TGI: 29.3 µM
A549 NSCLC
  TGI: 35.7 µM
MDA-MB-231 breast
  TGI: 18.4 µM
SR leukemia
  TGI: 0.27 µM

## CC(C)c1cc(C(C)C)c(P2(=O)CC3C(Cl)(Cl)C3(C)C2)c(C(C)C)c1 (stereo unspecified)
HCT-116 colon
  TGI: 20.2 µM
PC-3 prostate
  TGI: 17.8 µM
NCI-H226 lung
  TGI: 34.3 µM
KM12 colon
  TGI: 28.4 µM
NCI-H23 lung
  TGI: 24.3 µM
SK-OV-3 ovarian
  TGI: 31.3 µM
RPMI-8226 leukemia
  TGI: > 25.5 µM
OVCAR-8 ovarian
  TGI: 27.8 µM
TK-10 renal
  TGI: 24.5 µM
SK-MEL-28 melanoma
  TGI: 31.9 µM
M14 melanoma
  TGI: 23.2 µM
HS 578T breast
  TGI: 47.8 µM
SF-295 CNS
  TGI: 18.6 µM
SF-539 CNS
  TGI: 27.1 µM
LOX IMVI melanoma
  TGI: 21.5 µM
SNB-19 CNS
  TGI: 19.4 µM
NCI-H522 lung
  TGI: 4 µM
SNB-75 CNS
  TGI: 24.8 µM
MDA-N
  TGI: 27.1 µM
NCI-H460 lung
  TGI: 24.4 µM
HCT-15 colon
  TGI: 25.1 µM
CCRF-CEM leukemia
  TGI: 6.03 µM
EKVX NSCLC
  TGI: 31 µM
RXF 393 renal
  TGI: 28.2 µM
SF-268 CNS
  TGI: 25.3 µM
COLO 205 colon
  TGI: 25 µM
DU-145 prostate
  TGI: 28.9 µM
SN12C renal
  TGI: 29.3 µM
786-0 renal
  TGI: 14.6 µM
MDA-MB-435
  TGI: 26.8 µM
SK-MEL-5 melanoma
  TGI: 22.4 µM
CAKI-1 renal
  TGI: 9.6 µM
OVCAR-3 ovarian
  TGI: 20.4 µM
HOP-62 NSCLC
  TGI: 29 µM
HT29 colon
  TGI: 24.6 µM
UO-31 renal
  TGI: 3.44 µM
BT-549 breast
  TGI: 27.7 µM
U251 CNS
  TGI: 22 µM
HL-60(TB) leukemia
  TGI: 10.7 µM
MOLT-4 leukemia
  TGI: > 23.1 µM
HCC-2998 colon
  TGI: 26.9 µM
T-47D breast
  TGI: 27.7 µM
HOP-92 NSCLC
  TGI: 27.3 µM
OVCAR-4 ovarian
  TGI: 11.8 µM
MCF7 breast
  TGI: 19.5 µM
NCI/ADR-RES ovarian
  TGI: 16 µM
SW-620 colon
  TGI: 26.4 µM
SK-MEL-2 melanoma
  TGI: 24.8 µM
MALME-3M melanoma
  TGI: 33.2 µM
ACHN renal
  TGI: 25.1 µM
UACC-62 melanoma
  TGI: 21.3 µM
UACC-257 melanoma
  TGI: 20.9 µM
OVCAR-5 ovarian
  TGI: 30.5 µM
K-562 leukemia
  TGI: > 44.1 µM
IGROV1 ovarian
  TGI: 29.5 µM
A498 renal
  TGI: 26.9 µM
A549 NSCLC
  TGI: 25.6 µM
MDA-MB-231 breast
  TGI: 24.8 µM
SR leukemia
  TGI: 3.75 µM
